Where “and” joins values, the source holds several entries; their conditions need not be identical. Equal values may be shown once.
Key:
[1] = Selectivity of 1: reaction with NO·; settings: for Fluorescence: 15 min minus 0 min
Procedure: The probe 1 was also exposed to NO· at various concentrations. A NO· solution was generated by the addition of H2SO4 to NaNO2. A round-bottom flask containing a saturated solution of NaNO2 was connected to a series of three bubblers and one Erlenmeyer flask; the first two bubblers contained 30% NaOH, and the third contained ultrapure water. The flask contained ultrapure water (10 mL). The solutions were degassed with argon for 30 min. Then a 2 M solution of H2SO4 (1 mL) was added to the saturated NaNO2 to produce a 1.8 mM solution of NO· (assuming saturation at 25° C.) in the flask. A solution of 10 μM 1 in DMSO (20 μL) was added to 5:95 acetonitrile/50 mM pH 7 potassium phosphate buffer (160 μL). The NO· solution (20 μL) was then added to the mixture containing 1. The fluorescence was measured immediately and again after 15 min at 25° C. Similar results as the results for NO2^− and NO3^− were obtained for NO· (FIG. 22 and Table 13). The data in Table 13 is the fluorescence at 15 min minus the fluorescence at 0 min.

[2] = Selectivity of 1: reaction with ClO^−; settings: for Fluorescence Intensity: pH 7, 25° C., 15 min
Procedure: Next, it was tested whether OCl^− and ONOO^− (peroxynitrite), would react with 1. A solution of 0, 1, 10, or 22 μM ONOO— in 0.3 M NaOH (20 μL) or 1, 10, 100, or 1000 μM NaOCl in water (20 μL) was added to the wells of a black 96-well plate. A solution of 10 μM 1 in DMSO (560 μL) and 5:95 MeCN/1.2 M phosphate pH 7 buffer (4.48 mL) was made; this solution (180 μL) was transferred to each of the wells. The samples were allowed to incubate at 25° C. for 15 min before the fluorescence was measured. […] This may be attributed to trace amounts of H2O2 in the ONOO^− solution.

[3] = Selectivity of 1: reaction with ·OH; settings: for Fluorescence: 40 min minus 0 min
Procedure: The reactivity of 1 with ·OH was also investigated. ·OH was generated through the reaction of FeSO4·7H2O with H2O2. A solution of 100 μM 1 in ethanol (20 μL) was added to 5:95 methanol/50 mM phosphate pH 7 buffer (140 μL). Water or 104 U/mL catalase (20 μL) was added to the mixture. FeSO4·7H2O (27.4 mg) was added to ultrapure water (2.00 mL). This solution was diluted to 20 μM, 200 μM, and 2.00 mM. H2O2 was diluted to 200 μM and 2.00 mM. Equal volumes of FeSO4·7H2O solution and H2O2 were added together, and an aliquot (20 μL) was immediately transferred to the solution containing 1. The fluorescence intensity was measured immediately and again after incubation at 25° C. for 40 min. […] The Fluorescence values in Table 8 are the fluorescence at 40 min minus the fluorescence at 0 min.

[4] = Selectivity of 1: reaction with NO·; settings: 15 min minus 0 min
[5] = Selectivity of 1: reaction with ^1O2; settings: for Fluorescence: 40 min minus 0 min
Procedure: Probe 1 was titrated with NaMoO4 and H2O2 to determine whether ^1O2 reacted with the probe 1. A solution of 100 μM 1 in ethanol (20 μL) was added to 5:95 methanol/50 mM phosphate pH 7 buffer (140 μL). Water, 1 mM sodium azide, or 104 U/mL catalase (20 μL) was added to the mixture. NaMoO4·2H2O (11.1 mg) was added to ultrapure water (2.00 mL). This solution was diluted to 20 μM, 200 μM, and 2.00 mM. H2O2 was diluted to 200 μM and 2.00 mM. Equal volumes of NaMoO4 solution and H2O2 were added together, and an aliquot (20 μL) was immediately transferred to the solution containing 1. The fluorescence intensity was measured immediately and again after incubation at 25° C. for 40 min. A large fluorescence increase was observed only in the samples containing […] of both Na2MoO4 and H2O2(FIG. 16 and Table 7). […] 10^4 UmL^−1 catalase was added to the solutions to verify that 1 indeed responded to excess H2O2 that had not reacted with the Na2MoO4. The addition of catalase abolished the fluorescence signal observed in the presence of high concentrations of H2O2(FIG. 16 and Table 7). The fluorescence values in Table 7 are the fluorescence at 40 min minus the fluorescence at 0 min.

## Oc1ccc2c(c1)Oc1cc(O/C=C/C[Se]c3ccccc3)ccc1[C@@]21OCc2ccccc21 [Compound 1, (S,E)-6′-((3-(Phenylselanyl)prop-1-en-1-yl)oxy)-3H-spiro[isobenzofuran-1,9′-xanthen]-3′-ol]
[1]
  reaction with NO·: did not react
[1]; 0 μM NO· or H2O2, pH 7, 25° C.
  Fluorescence: 4,567 and 5,018 and 6,300
[1]; 0.1 μM NO·
  Fluorescence: 5,344 and 5,827 and 5,393
[1]; 1 μM NO·
  Fluorescence: 6,268 and 5,961 and 5,430
[1]; 10 μM NO·
  Fluorescence: 6,104 and 6,207 and 5,735
[2]
  fluorescence change with increasing concentrations of OCl^−: No statistically significant increase in fluorescence intensity
[2]; 100 nM NaOCl
  Fluorescence Intensity: 33,503 and 25,413 and 28,088
[2]; 1.0 μM NaOCl
  Fluorescence Intensity: 28,551 and 25,590 and 33,211
[2]; 10 μM NaOCl
  Fluorescence Intensity: 41,611 and 35,271 and 35,308
[2]; 100 μM NaOCl
  Fluorescence Intensity: 46,362 and 40,070 and 41,695
[2]; no ROS
  Fluorescence Intensity: 30,591 and 24,478 and 26,025
[3]
  reaction with FeSO4 or ·OH: neither FeSO4 nor the ·OH reacted with the probe
[3]; catalase, FeSO4 0 μM, 0 μM H2O2
  Fluorescence: 31,506 and 41,340 and 38,159
[3]; catalase, FeSO4 1 μM, 0 μM H2O2
  Fluorescence: 28,688 and 24,359 and 45,310
[3]; catalase, FeSO4 1 μM, 100 μM H2O2
  Fluorescence: 38,285 and 34,591 and 26,790
[3]; catalase, FeSO4 10 μM, 0 μM H2O2
  Fluorescence: 24,822 and 33,920 and 47,376
[3]; catalase, FeSO4 10 μM, 100 μM H2O2
  Fluorescence: 32,300 and 42,724 and 50,635
[3]; catalase, FeSO4 100 μM, 0 μM H2O2
  Fluorescence: 35,828 and 18,194 and 20,321
[3]; catalase, FeSO4 100 μM, 10 μM H2O2
  Fluorescence: 20,486 and 26,765 and 15,423
[3]; catalase, FeSO4 100 μM, 100 μM H2O2
  Fluorescence: 46,232 and 46,921 and 52,666
[3]; no additive, FeSO4 0 μM, 0 μM H2O2
  Fluorescence: 50,173 and 48,124 and 44,143
[3]; no additive, FeSO4 0 μM, 10 μM H2O2
  Fluorescence: 43,929 and 46,186 and 43,989
[3]; no additive, FeSO4 0 μM, 100 μM H2O2
  Fluorescence: 85,271 and 94,742 and 95,713
[3]; no additive, FeSO4 1 μM, 0 μM H2O2
  Fluorescence: 44,775 and 42,847 and 41,775
[3]; no additive, FeSO4 1 μM, 10 μM H2O2
  Fluorescence: 49,425 and 47,262 and 44,251
[3]; no additive, FeSO4 1 μM, 100 μM H2O2
  Fluorescence: 86,594 and 103,905 and 91,684
[3]; no additive, FeSO4 10 μM, 0 μM H2O2
  Fluorescence: 43,299 and 42,365 and 40,214
[3]; no additive, FeSO4 10 μM, 10 μM H2O2
  Fluorescence: 42,933 and 40,908 and 38,283
[3]; no additive, FeSO4 10 μM, 100 μM H2O2
  Fluorescence: 91,049 and 90,712 and 94,948
[3]; no additive, FeSO4 100 μM, 0 μM H2O2
  Fluorescence: 32,709 and 41,351 and 31,615
[3]; no additive, FeSO4 100 μM, 10 μM H2O2
  Fluorescence: 56,260 and 46,281 and 43,358
[3]; no additive, FeSO4 100 μM, 100 μM H2O2
  Fluorescence: 99,384 and 99,391 and 95,778
[4]; 0.1 μM H2O2
  Fluorescence: 9,370 and 9,525 and 9,517
[4]; 1 μM H2O2
  Fluorescence: 26,155 and 26,618 and 27,176
[4]; 10 μM H2O2
  Fluorescence: 111,008 and 106,765 and 111,053
[5]
  cause of fluorescence increase (reaction with ^1O2): not by ^1O2 itself
[5]; NaN3, NaMoO4 0 μM, 0 μM H2O2
  Fluorescence: 47,427 and 27,816 and 33,822
[5]; NaN3, NaMoO4 0 μM, 10 μM H2O2
  Fluorescence: 22,037 and 25,574 and 26,509
[5]; NaN3, NaMoO4 0 μM, 100 μM H2O2
  Fluorescence: 86,779 and 47,879 and 71,128
[5]; NaN3, NaMoO4 1 μM, 0 μM H2O2
  Fluorescence: 17,056 and 15,590 and 28,737
[5]; NaN3, NaMoO4 1 μM, 10 μM H2O2
  Fluorescence: 47,687 and 30,921 and 55,460
[5]; NaN3, NaMoO4 1 μM, 100 μM H2O2
  Fluorescence: 75,276 and 58,618 and 52,801
[5]; NaN3, NaMoO4 10 μM, 0 μM H2O2
  Fluorescence: 48,985 and 26,189 and 39,286
[5]; NaN3, NaMoO4 10 μM, 10 μM H2O2
  Fluorescence: 41,011 and 44,837 and 41,481
[5]; NaN3, NaMoO4 10 μM, 100 μM H2O2
  Fluorescence: 128,720 and 99,199 and 137,922
[5]; NaN3, NaMoO4 100 μM, 0 μM H2O2
  Fluorescence: 41,150 and 60,360 and 31,422
[5]; NaN3, NaMoO4 100 μM, 10 μM H2O2
  Fluorescence: 36,764 and 62,417 and 61,596
[5]; NaN3, NaMoO4 100 μM, 100 μM H2O2
  Fluorescence: 427,359 and 459,433 and 473,881
[5]; catalase, NaMoO4 1 μM, 100 μM H2O2
  Fluorescence: 54,776 and 34,302 and 31,904
[5]; catalase, NaMoO4 10 μM, 100 μM H2O2
  Fluorescence: 66,499 and 39,161 and 54,221
[5]; catalase, NaMoO4 100 μM, 100 μM H2O2
  Fluorescence: 137,047 and 103,725 and 102,097
[5]; no additive, NaMoO4 0 μM, 0 μM H2O2
  Fluorescence: 59,711 and 30,413 and 38,407
[5]; no additive, NaMoO4 0 μM, 100 μM H2O2
  Fluorescence: 48,948 and 86,970 and 68,803
[5]; no additive, NaMoO4 1 μM, 0 μM H2O2
  Fluorescence: 36,829 and 38,478 and 40,456
[5]; no additive, NaMoO4 1 μM, 10 μM H2O2
  Fluorescence: 27,103 and 23,437 and 25,142
[5]; no additive, NaMoO4 1 μM, 100 μM H2O2
  Fluorescence: 64,673 and 74,322 and 79,262
[5]; no additive, NaMoO4 10 μM, 10 μM H2O2
  Fluorescence: 33,243 and 34,233 and 26,543
[5]; no additive, NaMoO4 10 μM, 100 μM H2O2
  Fluorescence: 113,217 and 132,450 and 119,014
[5]; no additive, NaMoO4 100 μM, 0 μM H2O2
  Fluorescence: 24,734 and 26,617 and 17,702
[5]; no additive, NaMoO4 100 μM, 10 μM H2O2
  Fluorescence: 38,768 and 55,874 and 53,722
[5]; no additive, NaMoO4 100 μM, 100 μM H2O2
  Fluorescence: 468,686 and 476,166 and 482,448

From patent US12540150B1, “Fluorogenic probe using a Mislow-Evans rearrangement for real-time imaging of hydrogen peroxide” (University of Pittsburgh—Of the Commonwealth System of …, priority 2020, dated 2026)
